Reference: PubChem BioAssay (NCI)
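Interpolation was linear, between the two tested concentrations surrounding the appropriate level; five concentrations were tested over 48 hours in 96-well plates. The concentration for 50% growth inhibition is given as GI50. The concentration for full growth arrest is given as TGI.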

Assays:
Assay in all cases: NCI-60 cell line screen, 48 h
OVCAR-4 ovarian = system: OVCAR-4 ovarian
KM20L2 colon = system: KM20L2 colon
SN12C renal = system: SN12C renal
DLD-1 colon = system: DLD-1 colon
SNB-19 CNS = system: SNB-19 CNS
U251 CNS = system: U251 CNS
DU-145 prostate = system: DU-145 prostate
NCI-H226 lung = system: NCI-H226 lung
PC-3 prostate = system: PC-3 prostate
A498 renal = system: A498 renal

| Structure (SMILES) | TGI (OVCAR-4 ovarian) | TGI (KM20L2 colon) | TGI (SN12C renal) | TGI (DLD-1 colon) | TGI (SNB-19 CNS) | GI50 (OVCAR-4 ovarian) | GI50 (U251 CNS) | TGI (U251 CNS) | GI50 (DU-145 prostate) | TGI (DU-145 prostate) | GI50 (NCI-H226 lung) | TGI (NCI-H226 lung) | GI50 (SN12C renal) | GI50 (PC-3 prostate) | TGI (PC-3 prostate) | GI50 (SNB-19 CNS) | GI50 (A498 renal) | TGI (A498 renal) |
| --- | --- | --- | --- | --- | --- | --- | --- | --- | --- | --- | --- | --- | --- | --- | --- | --- | --- | --- |
| O=C1CCSC2=C1SCc1sccc12 | > 100 µM | > 100 µM | > 100 µM | > 100 µM | > 100 µM | – | – | – | – | – | – | – | – | – | – | – | – | – |
| CCCCCCCCCCCCCCCCC(=O)O.CCCCCCCCCCCCCCCCCC(=O)O.CCCCCCCCCCCCCCCCCC(=O)O.CCCCCCCCCCCCCCCCCC(=O)O.CCCCCCCCCCCCCCCCCC(=O)O.CO[CH-]OC12COC1CC(O)C1(C)C(O)C(OC(C)O)C3=C(C)C(OC(=O)C(O)C([NH-])c4ccccc4)CC(O)(C(OC(=O)c4ccccc4)C21)C3(C)C.[Cu+].[Zn].[Zn].[Zn].[Zn].[Zn] (stereo not drawn) | 11.7 µM | – | > 25 µM | – | > 11.5 µM | 2.35 µM | 0.00851 µM | 4.09 µM | 0.00871 µM | 1.63 µM | 0.277 µM | 8.05 µM | 0.0116 µM | 0.00998 µM | 5.63 µM | 0.0105 µM | < 0.0025 µM | 0.0187 µM |
| CCCCCCCCn1ccc2cc(NC(=O)Cn3cc(CN4CCCCC4)nn3)ccc21 | 14.3 µM | – | 3.75 µM | – | 3.65 µM | 3.66 µM | 1.78 µM | 3.34 µM | 4.1 µM | 14.4 µM | 8.65 µM | 27.7 µM | 1.8 µM | 1.43 µM | 3.05 µM | 1.82 µM | 5.05 µM | 19.5 µM |
| CCN(CC)C1CCC(Nc2c(C(C)=O)cnc3ccc(-c4ccc(O)c(Cl)c4)cc23)CC1 (stereo not drawn) | 13.6 µM | – | > 60 µM | – | 69.6 µM | 0.77 µM | 1.16 µM | 17 µM | 0.875 µM | > 35.5 µM | 2.16 µM | 22.6 µM | 0.45 µM | 0.494 µM | > 44.5 µM | 1.75 µM | 2.19 µM | 6.84 µM |
| O=C(/C(=C\c1ccc(Cl)cc1)c1ccccc1)c1ccccc1 | > 100 µM | – | > 100 µM | > 100 µM | – | – | – | > 100 µM | – | – | – | > 100 µM | – | – | – | – | – | > 100 µM |
| CC(C)(C)CC(N)=O | > 100 µM | – | > 100 µM | – | > 100 µM | – | – | > 100 µM | – | > 100 µM | – | > 100 µM | – | – | > 100 µM | – | – | > 100 µM |
| CC(=O)Oc1ccc(/C(=C(\C)c2ccc(Cl)cc2)c2ccc(OCCN3CCCCC3)cc2)cc1 | 5.43 µM | – | 3.52 µM | – | 5.8 µM | 1.93 µM | 1.66 µM | 3.27 µM | 1.92 µM | 3.83 µM | 6.39 µM | 22.9 µM | 1.69 µM | 1.74 µM | 3.88 µM | 2.26 µM | 3.62 µM | 15.2 µM |
| COc1ccc(C2C=C(c3ccc4c(c3)OCO4)Oc3c2c(=O)oc2ccccc32)cc1OC (stereo not drawn) | > 100 µM | – | > 100 µM | – | > 100 µM | – | – | > 100 µM | – | > 100 µM | – | 9.6 µM | – | – | > 100 µM | – | – | 7.21 µM |
| C=C(C(=C)P(=S)(c1ccccc1)c1ccccc1)P(=S)(c1ccccc1)c1ccccc1 | > 100 µM | > 100 µM | > 100 µM | – | > 100 µM | – | – | > 100 µM | – | – | – | – | – | – | – | – | – | > 100 µM |
| Cc1ccc(Cl)c(Nc2ccccc2C(=O)O)c1Cl | 94.6 µM | – | > 100 µM | – | > 100 µM | 29.9 µM | 26 µM | 82.4 µM | 28.9 µM | 71.8 µM | 28 µM | 82.4 µM | 30.7 µM | 29.9 µM | > 100 µM | 35 µM | 22.2 µM | 87.4 µM |
| COC(=O)C1=C(C(=O)OC)C2(C)Nc3ccccc3C2=C(c2ccccc2)C1 (stereo not drawn) | 50.1 µM | 74.3 µM | 57.7 µM | > 100 µM | 75.5 µM | – | – | 41.6 µM | – | – | – | – | – | – | – | – | – | – |
| CC1OC(OC2C(OC3CCC4(C)C(CCC5(C)C4CC=C4C6CC(C)(C)CCC6(C(=O)O)CCC45C)C3(C)CO)OCC(O)C2O)C(O)C(O)C1O (stereo not drawn) | 30.5 µM | – | 42 µM | – | 32.3 µM | – | – | 50.3 µM | – | 42.3 µM | – | 49.6 µM | – | – | 29.1 µM | – | – | 31.1 µM |
| Oc1cc2ccccc2c(-c2c(O)c(O)cc3ccccc23)c1O | 34.3 µM | – | 15.8 µM | – | 27.8 µM | 2.3 µM | 1.32 µM | 20.3 µM | 2.29 µM | 15.4 µM | 3.83 µM | 26.6 µM | 1.99 µM | 2.17 µM | > 52.2 µM | 2.75 µM | 1.14 µM | 10.5 µM |
| COc1cc(C(=O)N/N=C/c2ccc(N(C)C)cc2)cc(OC)c1OC | > 100 µM | – | > 100 µM | – | > 100 µM | 0.824 µM | 0.436 µM | > 100 µM | 0.415 µM | 2.79 µM | 4.68 µM | > 100 µM | 1.1 µM | 0.422 µM | > 100 µM | 10.6 µM | 0.172 µM | 0.799 µM |
| Cn1c(NCC(O)CN2CCCC2)cc(=O)n(C)c1=O (stereo not drawn) | > 100 µM | – | > 100 µM | – | > 100 µM | > 100 µM | > 100 µM | > 100 µM | > 100 µM | > 100 µM | > 100 µM | > 100 µM | > 100 µM | > 100 µM | > 100 µM | > 100 µM | > 100 µM | > 100 µM |
| O=C1c2cccc(NCCN=Cc3ccccc3O)c2C(=O)c2c(NCCN=Cc3ccccc3O)cccc21 | 2.39 µM | – | 2.05 µM | – | 3.54 µM | – | 0.521 µM | 4.62 µM | 0.364 µM | 1.55 µM | 0.571 µM | 6 µM | 0.269 µM | 1.03 µM | 5.87 µM | 0.776 µM | 1.11 µM | 2.6 µM |
| COc1cc(-c2cc(-c3cc(OC)c(OC)c(OC)c3)nc3nc(N)[nH]c(=O)c23)ccc1Oc1ccnc2cc(Cl)ccc12 | > 100 µM | – | 41.8 µM | – | > 100 µM | 4.34 µM | 2.46 µM | 7.32 µM | 3.51 µM | > 100 µM | 13.4 µM | 35.9 µM | 3.83 µM | 3.18 µM | > 100 µM | 6.62 µM | 16.3 µM | 86.4 µM |
| COc1ccc(/C=C/C(=O)c2ccc(OC)c(OC)c2)cc1O | 20.8 µM | – | 15.6 µM | – | 20.8 µM | 8.45 µM | 3.59 µM | 14.6 µM | 2.34 µM | 5.64 µM | 11.1 µM | 25.4 µM | 3.74 µM | 12.8 µM | 39.6 µM | 6.42 µM | 4.84 µM | 20.3 µM |
| OCc1ccc(N2CCc3ccccc3C2)cc1Cl | 0.0633 µM | – | > 100 µM | – | > 100 µM | < 0.0149 µM | < 0.0292 µM | > 44.5 µM | 2.38 µM | 22.3 µM | 0.0134 µM | 0.0768 µM | 11.4 µM | 17.2 µM | > 62.3 µM | 31 µM | < 0.015 µM | 0.0355 µM |
| CCCCCCCCCCCCOC1C(CNC(=O)C2OC3OC(C)(C)OC3C2NC(=O)Nc2ccc(CC(=O)NC(Cc3ccccc3)C(=O)O)cc2)OC2OC(C)(C)OC21 (stereo not drawn) | > 25 µM | – | > 25 µM | – | > 25 µM | > 25 µM | > 25 µM | > 25 µM | > 25 µM | > 25 µM | > 25 µM | > 25 µM | > 25 µM | > 25 µM | > 25 µM | > 25 µM | > 25 µM | > 25 µM |
| O=C(Nc1ccc(/C=C/c2ccc(NC(=O)c3cc(S(=O)(=O)O)c4cccnc4c3O)cc2S(=O)(=O)O)c(S(=O)(=O)O)c1)c1cc(S(=O)(=O)O)c2cccnc2c1O | > 75.2 µM | – | > 59.2 µM | – | > 100 µM | > 54.4 µM | 3.32 µM | > 22.4 µM | 17.7 µM | > 50.7 µM | 6.29 µM | 47.5 µM | 4.36 µM | 32.2 µM | > 78.3 µM | 12.2 µM | 46.6 µM | > 64.4 µM |
| CC(=O)c1cc(C(=O)c2ccc3c(c2)Sc2ccccc2N3)c2cc(C)ccn12 | > 100 µM | – | > 100 µM | – | > 100 µM | 1.29 µM | 0.138 µM | > 100 µM | 0.188 µM | > 100 µM | 3.91 µM | > 100 µM | 0.479 µM | 0.0506 µM | > 100 µM | 0.183 µM | 0.0431 µM | > 100 µM |
| Cc1ccc2c(c1)S(=O)(=O)c1ccc3ccccc3c1N2 | > 100 µM | – | > 100 µM | – | > 100 µM | – | – | > 100 µM | – | > 100 µM | – | > 100 µM | – | – | > 100 µM | – | – | > 100 µM |
| NC(N)=N/N=C/c1ccc(-c2ccc(-c3cc(Cl)cc(Cl)c3)s2)cc1 | 3.77 µM | – | 3.48 µM | – | 3.73 µM | 1.9 µM | 1.89 µM | 4.04 µM | 1.74 µM | 3.18 µM | 2.33 µM | 5.99 µM | 1.76 µM | 1.58 µM | 3.16 µM | 1.85 µM | 1.25 µM | 2.55 µM |
| O=c1ssc(Cl)c1Cl | > 10 µM | – | > 10 µM | – | > 10 µM | – | – | > 10 µM | – | > 10 µM | – | > 10 µM | – | – | > 10 µM | – | – | > 10 µM |
